Data: patent US20100040617A1, “Method of Using CD100 (or Sema4D) to Mediate Platelet Activation and Inflammatory Responses” (Trustees of the University of Pennsylvania, priority 2004, published 2010)

Legend:
Akt = Akt phosphorylation (pAkt473 immunoblot) in human platelets; type: cell-based; conditions: immunoblot for pAkt473, absent in resting platelets (FIG. 7)
Method: FIG. 7 represents an immunoblot for pAkt473 from human platelets that were stimulated with recombinant sema4D or thrombin.
Activation of the PI 3-kinase pathway was measured using phosphorylation of Akt as a surrogate. Akt phosphorylation normally occurs in platelets activated by collagen and other agonists. Akt phosphorylation was also recently shown to occur in endothelial cells stimulated with soluble sema4D/CD100 (Basile, et al. Mol Cell Biol. […]: 6889, 2005). In endothelial cells responses to sema4D/CD100 appear to be mediated by plexin-B1. In FIG. 7, human platelets were stimulated with a His-tagged protein corresponding to the human sema4D/CD100 exodomain. Platelet lysates were prepared and immunoblotted with an antibody specific for pAkt473. Thrombin was used as a positive control.

sema4D/CD100 [1] = assay: sema4D/CD100 cleavage in activated platelets (immunoblot with Abm30); type: cell-based, human; conditions: for cleavage of sema4D/CD100: platelets stimulated with 100 nM PMA at 37° C. for 30 min, 20 μM TAPI-2 preincubated for 60 min (FIG. 4A), EDTA not shown
Text: (§1) FIG. 4 represents the effect of metalloprotease inhibitors on sema4D expression. […] Sema4D was precipitated and blotted with Abm30. Ig light and heavy chains are indicated.
(§2) The observation that sema4D/CD100 cleavage occurs in washed platelets implies that the protease involved is intrinsic to the platelets and not a plasma protein. Platelets are known to contain a number of metalloproteases, including members of the MMP and ADAM families (Sheu, J. R., et al., Br J Pharmacol, 2004. 143(1): p. 193-201. Sawicki, G., et al., Nature, 1997. 386: p. 616-619. Sawicki, G., et al., Thromb. Haemost., 1998. 80: p. 836-839. Colciaghi, F., et al., Mol Med, 2002. 8(2): p. 67-74.).

sema4D/CD100 [2] = assay: Rate of sema4D/CD100 cleavage in stirred, PMA-activated platelets; type: cell-based, human; conditions: fibrinogen binding and aggregation inhibited by the peptide (not shown)
Method: Washed platelets were stimulated with 100 nM PMA in an aggregometer cuvette at 37° C. with or without stirring. Lysates were precipitated and blotted with antibody Abm30. The extent of platelet aggregation in the stirred samples is indicated below each lane.
To address the issue of whether the rate of sema4D/CD100 cleavage is different when aggregation is allowed to occur than when activation occurs in the absence of aggregation, platelets were activated with or without the stirring needed for platelet aggregates to form. PMA caused a time-dependent loss of intact sema4D/CD100 and the appearance of the C-terminal sema4D/CD100 fragment. The rate of cleavage was accelerated when aggregation was allowed to occur (FIG. 3). Even at its fastest, however, cleavage lagged behind aggregation.
Platelet aggregation study also included the use of washed platelets were stimulated with 100 nM PMA in an aggregometer cuvette at 37° C. with or without stirring. Lysates were precipitated and blotted with antibody Abm30.

sema4D/CD100 [3] = assay: sema4D/CD100 surface expression on platelets by FACS; type: cell-based, human; conditions: platelets stimulated with PMA for 15 min or 60 min, FACS (FIG. 4B)
Method: as §1
Surface expression of sema4D/CD100 was detected by FACS using an antibody that recognizes the extracellular domain. Expression increased when the platelets were activated with PMA for 15 minutes (FIG. 1C). In contrast, the α-granule membrane protein, P-selectin, was detected only on activated platelets.
as §2

monocytes = conditions: cited from earlier work
recombinant ADAM17 = molecular target: T1, recombinant ADAM17 (Homo sapiens, UniProt P78536); assay: Cleavage of Fc-sema4D by recombinant ADAM17; type: biochemical; conditions: recombinant ADAM17 lacking the pro domain (FIG. 11)
T1 construct: incubated with recombinant ADAM17 lacking the pro domain
Method: FIG. 11 represents the cleavage of sema4D by ADAM17. Recombinant ADAM17 was incubated with Fc-sema4D in which the extracellular domain of human sema4D was joined via a linker to the N-terminus of IgG1 Fc. Two fragments were detected by amido black protein staining (left), the smaller of which (fragment #1) was also detectable with anti-Fc, as was the intact protein (middle). The N-terminal sequence of fragment #1 was determined.
The cleavage site within platelet sema4D/CD100 was determined by using the C-terminal sema4D/CD100 antibody to immunoprecipitate the 25-30 kDa fragment that includes the transmembrane domain and any remaining extracellular domain. […]
In an effort to determine whether sema4D is a direct substrate for ADAM17, a chimeric protein comprised of the extracellular domain of human sema4D fused to the N-terminus of an IgG Fc domain fragment (Ishida et al. 2003. Int Immunol 15:1027-1034) was incubated with recombinant ADAM17 lacking the pro domain (Milla et al. 1999. J Biol Chem 274:30563-30570). […] It has been determined that in platelets, as in lymphocytes, the extracellular domain of sema4D/CD100 is shed as a disulfide-linked dimer.

human platelets = assay: ADP-induced platelet aggregation; type: cell-based
Method: FIG. 9A represents human platelets that were stimulated with a low concentration of ADP±soluble a soluble chimera of the extracellular domain of sema4D/CD100 fused to IgGκ Fc. FIG. 9B represents an immunoblot of FcCD100 that was performed under reducing and non-reducing conditions using anti-Fc.
Soluble sema4D/CD100 caused an increase in ADP-induced aggregation (FIG. 9). In this experiment, soluble sema4D/CD100 was added as a fusion protein (referred to as FcSema4D or FcCD100) in which the entire extracellular domain of sema4D/CD100 was fused to an IgG Fc domain. The protein forms a disulfide-linked homodimer capable of activating sema4D/CD100 receptors (Ishida, I., et al., Int Immunol, 2003. 15(8): p. 1027-34). FcCD100 had no effect when added on its own (not shown). […] Therefore, it appears that stimulating a receptor for sema4D/CD100 on platelets potentiates platelet responses to ADP. Additional platelet agonists (especially collagen) are going to be explored using platelet accumulation on collagen under flow as an additional endpoint.

T1 sequence (P78536 215-824): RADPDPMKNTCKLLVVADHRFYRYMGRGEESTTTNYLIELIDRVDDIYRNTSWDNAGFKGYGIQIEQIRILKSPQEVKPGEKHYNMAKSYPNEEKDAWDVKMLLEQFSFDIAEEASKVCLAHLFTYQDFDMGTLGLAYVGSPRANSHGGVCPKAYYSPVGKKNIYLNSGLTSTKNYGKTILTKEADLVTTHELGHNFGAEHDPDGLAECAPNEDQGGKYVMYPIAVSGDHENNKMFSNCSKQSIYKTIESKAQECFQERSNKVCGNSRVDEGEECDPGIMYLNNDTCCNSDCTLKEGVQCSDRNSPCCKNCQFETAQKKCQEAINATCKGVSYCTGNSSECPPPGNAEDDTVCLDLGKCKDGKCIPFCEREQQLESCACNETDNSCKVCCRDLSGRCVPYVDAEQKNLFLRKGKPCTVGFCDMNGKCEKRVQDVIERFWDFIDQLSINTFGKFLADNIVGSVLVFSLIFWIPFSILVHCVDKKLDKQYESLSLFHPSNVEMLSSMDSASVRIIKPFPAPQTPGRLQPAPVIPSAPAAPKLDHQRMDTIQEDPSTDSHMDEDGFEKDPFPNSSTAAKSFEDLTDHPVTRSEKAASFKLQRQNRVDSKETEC

For thrombin, the “pAkt in platelet lysates” value (Akt) was “readily detectable”.

For O=C(O)CN(CCN(CC(=O)O)CC(=O)O)CC(=O)O [EDTA], the “cleavage of sema4D/CD100” value (sema4D/CD100 [1]) was “inhibited”.

For RGDS, the “rate of sema4D/CD100 cleavage” value (sema4D/CD100 [2]) was “the rate of cleavage became more like that seen when the platelets were activated without stirring”.

With CC(C)C[C@H](CC(=O)NO)C(=O)N[C@H](C(=O)N[C@@H](C)C(=O)NCCN)C(C)(C)C [TAPI-2] the “loss of sema4D/CD100 surface expression” value (sema4D/CD100 [3]) was “prevented the loss of surface expression”, the sema4D/CD100 cleavage (sema4D/CD100 [1]; platelets activated by thrombin or SFLLRN (not shown)) was “abolished” and the “cleavage of sema4D/CD100” value (sema4D/CD100 [1]) was “inhibited”.

In the case of CNC(=O)[C@H](Cc1c[nH]c2ccccc12)NC(=O)[C@@H](CC(=O)NO)CC(C)C [GM6001], the “cleavage of sema4D/CD100” value (sema4D/CD100 [1]) is reported as “inhibited”.

In the case of “soluble sema4D/CD100: in FIG. 7 a His-tagged protein corresponding to the human sema4D/CD100 exodomain”, the “half-maximal effects on monocytes” value (monocytes) is given as 5 to 10 ng/mL, the “maximal effects on monocytes” value (monocytes) is given as 40 to 50 ng/mL and the “pAkt in platelet lysates” value (Akt) is given as “readily detectable”.

For “FcCD100: fusion protein in which the entire extracellular domain of sema4D/CD100 was fused to an IgG Fc domain; disulfide-linked homodimer”, the “cleavage by recombinant ADAM17” value (recombinant ADAM17) was “Cleavage produced two identifiable fragments”, the “platelet aggregation in the presence of ADP” value (human platelets; low concentration of ADP (FIG. 9)) was “caused an increase in platelet aggregation” and the “platelet aggregation, added on its own” value (human platelets; no ADP (not shown)) was “no effect”.
